Test results taken from PubChem BioAssay AID330 (DTP/NCI, 2004).
“And” between values parts separate entries of the source, which are not always exact repeats. Identical values can stand only once. Toxic doses and inconclusive results are not listed.

Tested on: P388 leukemia ip, CD2F1 mice, survival T/C
Experiment: NCI In Vivo Anticancer Drug Screen. Data for tumor model P388 Leukemia (intraperitoneal) in CD2F1 (CDF1) mice
Conditions: endpoint: median survival time, higher = longer survival
In short: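 Mice carrying the transplanted tumor received test compound or vehicle. Survival was recorded in each group, and the value is the treated-group measurement divided by that of the vehicle-treated control group.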

[1] = dose: 60.0 mg/kg/injection, schedule: Q01DX005 (ip), vehicle: saline with Tween-80
[2] = dose: 120.0 mg/kg/injection, schedule: Q01DX005 (ip), vehicle: saline with Tween-80
[3] = dose: 240.0 mg/kg/injection, schedule: Q01DX005 (ip), vehicle: saline with Tween-80
[4] = dose: 50.0 mg/kg/injection, schedule: Q01DX005 (ip), vehicle: Klucel (hydroxypropylcellulose) (HPC)
[5] = dose: 100.0 mg/kg/injection, schedule: Q01DX005 (ip), vehicle: Klucel (hydroxypropylcellulose) (HPC)
[6] = dose: 200.0 mg/kg/injection, schedule: Q01DX005 (ip), vehicle: Klucel (hydroxypropylcellulose) (HPC)

CCOC(=O)Cn1nc(-c2ccccc2)c(-c2ccccc2)c(C#N)c1=O
T/C (dose: 25.0 mg/kg/injection, schedule: Q04DX002 (ip), vehicle: distilled water + Tween-80): 95 % of control | T/C (dose: 50.0 mg/kg/injection, schedule: Q04DX002 (ip), vehicle: distilled water + Tween-80): 107 % of control | T/C (dose: 100.0 mg/kg/injection, schedule: Q04DX002 (ip), vehicle: distilled water + Tween-80): 98 % of control | T/C (dose: 200.0 mg/kg/injection, schedule: Q04DX002 (ip), vehicle: distilled water + Tween-80): 92 % of control

CCn1cc(C(=O)O)c(=O)c2cc(Cl)c(-n3cccc3)cc21
T/C [1]: 95 % of control | T/C [2]: 99 % of control | T/C [3]: 94 % of control

COc1cc(/C=C(\C#N)C(N)=O)cc(Br)c1O
T/C (dose: 50.0 mg/kg/injection, schedule: Q01DX005 (ip), vehicle: saline with Tween-80): 100 % of control | T/C (dose: 100.0 mg/kg/injection, schedule: Q01DX005 (ip), vehicle: saline with Tween-80): 103 % of control | T/C (dose: 200.0 mg/kg/injection, schedule: Q01DX005 (ip), vehicle: saline with Tween-80): 100 % of control

CN(C)CCC[n+]1cc2c3ccccc3c(N)cc2c2ccccc21
T/C (dose: 3.13 mg/kg/injection, schedule: Q04DX003 (ip), vehicle: water): 104 % of control | T/C (dose: 6.25 mg/kg/injection, schedule: Q04DX003 (ip), vehicle: water): 121 % of control | T/C (dose: 12.5 mg/kg/injection, schedule: Q04DX003 (ip), vehicle: water): 109 % of control | T/C (dose: 25.0 mg/kg/injection, schedule: Q04DX003 (ip), vehicle: water): 109 % of control

CC1CN1CC(O)C(O)CN1CC1C (centres undefined)
T/C (dose: 0.01 mg/kg/injection, schedule: Q04DX003 (ip), vehicle: saline): 109 % of control | T/C (dose: 0.02 mg/kg/injection, schedule: Q04DX003 (ip), vehicle: saline): 104 % of control | T/C (dose: 0.15 mg/kg/injection, schedule: Q04DX003 (ip), vehicle: saline): 160 % of control | T/C (dose: 0.3 mg/kg/injection, schedule: Q04DX003 (ip), vehicle: saline): 170 % of control | T/C (dose: 0.5 mg/kg/injection, schedule: Q04DX003 (ip), vehicle: saline): 160 % of control | T/C (dose: 0.6 mg/kg/injection, schedule: Q04DX003 (ip), vehicle: saline): 170 % of control | T/C (dose: 0.62 mg/kg/injection, schedule: Q04DX003 (ip), vehicle: saline): 154 % of control | T/C (dose: 1.0 mg/kg/injection, schedule: Q04DX003 (ip), vehicle: saline): 185 % of control | T/C (dose: 1.25 mg/kg/injection, schedule: Q01DX009 (ip), vehicle: saline with Tween-80): 272 % of control | T/C (dose: 1.25 mg/kg/injection, schedule: Q04DX003 (ip), vehicle: saline): 163 % of control | T/C (dose: 2.0 mg/kg/injection, schedule: Q04DX003 (ip), vehicle: saline): 240 % of control | T/C (dose: 2.5 mg/kg/injection, schedule: Q01DX009 (ip), vehicle: saline with Tween-80): 95 % of control | T/C (dose: 2.5 mg/kg/injection, schedule: Q01DX009 (ip), vehicle: saline): 222 % of control | T/C (dose: 2.5 mg/kg/injection, schedule: Q04DX003 (ip), vehicle: saline): 222 % of control | T/C (dose: 3.0 mg/kg/injection, schedule: Q04DX003 (ip), vehicle: saline): 172 % of control | T/C (dose: 3.3 mg/kg/injection, schedule: Q04DX003 (ip), vehicle: saline): 212 % of control | T/C (dose: 5.0 mg/kg/injection, schedule: Q01DX009 (ip), vehicle: saline): 122 % of control | T/C (dose: 5.0 mg/kg/injection, schedule: Q04DX003 (ip), vehicle: saline): 231 % of control and 183 % of control and 230 % of control | T/C (dose: 6.0 mg/kg/injection, schedule: Q04DX003 (ip), vehicle: saline): 268 % of control | T/C (dose: 7.5 mg/kg/injection, schedule: Q04DX003 (ip), vehicle: saline): 272 % of control | T/C (dose: 10.0 mg/kg/injection, schedule: Q04DX003 (ip), vehicle: saline): 268 % of control | T/C (dose: 63.0 micrograms/kg/injection, schedule: Q04DX003 (ip), vehicle: saline): 100 % of control | T/C (dose: 125.0 micrograms/kg/injection, schedule: Q04DX003 (ip), vehicle: saline): 100 % of control | T/C (dose: 250.0 micrograms/kg/injection, schedule: Q04DX003 (ip), vehicle: saline): 104 % of control

C=C(C)CCN1C(=O)NC(C)(C)C1O (centres undefined)
T/C (dose: 50.0 mg/kg/injection, schedule: Q01DX005 (ip), vehicle: saline): 100 % of control | T/C (dose: 100.0 mg/kg/injection, schedule: Q01DX005 (ip), vehicle: saline): 107 % of control | T/C (dose: 200.0 mg/kg/injection, schedule: Q01DX005 (ip), vehicle: saline): 101 % of control

COc1ccc(CNNc2ccc(NC(C)=O)cc2N)cc1
T/C (dose: 25.0 mg/kg/injection, schedule: Q04DX003 (ip), vehicle: saline with Tween-80): 90 % of control | T/C (dose: 50.0 mg/kg/injection, schedule: Q04DX003 (ip), vehicle: saline with Tween-80): 88 % of control | T/C (dose: 100.0 mg/kg/injection, schedule: Q04DX003 (ip), vehicle: saline with Tween-80): 105 % of control

O=c1[nH][nH]c(=O)c2c1CCCC2
T/C (dose: 25.0 mg/kg/injection, schedule: Q01DX009 (ip), vehicle: saline): 107 % of control | T/C (dose: 50.0 mg/kg/injection, schedule: Q01DX009 (ip), vehicle: saline): 95 % of control | T/C (dose: 100.0 mg/kg/injection, schedule: Q01DX009 (ip), vehicle: saline): 100 % of control | T/C (dose: 200.0 mg/kg/injection, schedule: Q01DX009 (ip), vehicle: saline): 101 % of control

CCCCN(CCCC)CCC(O)c1cc(-c2ccc(C(F)(F)F)cc2)nc(C(F)(F)F)c1 (centres undefined)
T/C (dose: 6.25 mg/kg/injection, schedule: Q01DX009 (ip), vehicle: saline with Tween-80): 89 % of control | T/C (dose: 12.5 mg/kg/injection, schedule: Q01DX009 (ip), vehicle: saline with Tween-80): 94 % of control | T/C (dose: 25.0 mg/kg/injection, schedule: Q01DX009 (ip), vehicle: saline with Tween-80): 110 % of control

O=C(/C=C/c1c[nH]c2ccccc12)c1cccc([N+](=O)[O-])c1
T/C [1]: 97 % of control | T/C [2]: 94 % of control | T/C [3]: 92 % of control

CC(C)(C)OSc1ccccc1
T/C (dose: 100.0 mg/kg/injection, schedule: Q04DX002 (ip), vehicle: Klucel (hydroxypropylcellulose) (HPC)): 101 % of control | T/C (dose: 200.0 mg/kg/injection, schedule: Q04DX002 (ip), vehicle: Klucel (hydroxypropylcellulose) (HPC)): 97 % of control | T/C (dose: 400.0 mg/kg/injection, schedule: Q04DX002 (ip), vehicle: Klucel (hydroxypropylcellulose) (HPC)): 102 % of control

CCCc1nc(N)[nH]c(=O)c1I
T/C [4]: 88 % of control | T/C [5]: 95 % of control | T/C [6]: 106 % of control

CC[C@@]1(O)C[C@H](OC2CCC(OC3CC(OC(C)=O)C(OC(C)=O)C(C)O3)C(C)O2)c2c(O)c3c(c(O)c2[C@H]1C(=O)OC)C(=O)c1cccc(O)c1C3=O (some centres undefined)
T/C (dose: 3.13 mg/kg/injection, schedule: Q04DX003 (ip), vehicle: distilled water + Tween-80): 100 % of control | T/C (dose: 6.25 mg/kg/injection, schedule: Q04DX003 (ip), vehicle: distilled water + Tween-80): 100 % of control | T/C (dose: 12.5 mg/kg/injection, schedule: Q04DX003 (ip), vehicle: distilled water + Tween-80): 101 % of control | T/C (dose: 25.0 mg/kg/injection, schedule: Q04DX003 (ip), vehicle: distilled water + Tween-80): 105 % of control | T/C (dose: 50.0 mg/kg/injection, schedule: Q04DX003 (ip), vehicle: distilled water + Tween-80): 103 % of control

CCOC(=O)N1CCC23C=C(OC)C(=O)C=C2C1CC1=C3C(=O)C(OC)=CC1=O (centres undefined)
T/C (dose: 100.0 mg/kg/injection, schedule: Q01DX001 (ip), vehicle: saline): 101 % of control | T/C (dose: 200.0 mg/kg/injection, schedule: Q01DX001 (ip), vehicle: saline): 97 % of control | T/C (dose: 400.0 mg/kg/injection, schedule: Q01DX001 (ip), vehicle: saline): 105 % of control

COc1ccc(-c2cc(=O)c3c(O)cc(O)c(-c4cc(-c5cc(=O)c6c(O)cc(OC)cc6o5)ccc4OC)c3o2)cc1
T/C [4]: 105 % of control | T/C [5]: 99 % of control | T/C [6]: 88 % of control

CN1C(c2ccccc2)C2CSCC(C2O)C1c1ccccc1 (centres undefined)
T/C (dose: 100.0 mg/kg/injection, schedule: Q04DX003 (ip), vehicle: suspension in saline): 106 % of control | T/C (dose: 200.0 mg/kg/injection, schedule: Q04DX003 (ip), vehicle: suspension in saline): 100 % of control | T/C (dose: 400.0 mg/kg/injection, schedule: Q04DX003 (ip), vehicle: suspension in saline): 98 % of control

CCn1c(Cl)c(/C=N\Nc2ccccc2[N+](=O)[O-])c2ccccc21
T/C (dose: 12.5 mg/kg/injection, schedule: Q01DX001 (ip), vehicle: Klucel (hydroxypropylcellulose) (HPC)): 94 % of control | T/C (dose: 25.0 mg/kg/injection, schedule: Q01DX001 (ip), vehicle: Klucel (hydroxypropylcellulose) (HPC)): 88 % of control

COC(=O)c1cc(OCC#CC#CCOc2ccc(O)c(C(=O)OC)c2)ccc1O
T/C [1]: 95 % of control | T/C [2]: 89 % of control | T/C [3]: 86 % of control
